Experimental data: patent publication US20230137836A1, “NOVEL PROLYLFK506 DERIVATIVES HAVING NEURITE GROWTH AND SYNAPSE FORMATION ACTIVITIES AND USES THEREOF” (Seoul National University R&DB Foundation, priority 2020, published 2023)
≈ marks a conversion by molar mass, not a printed value.

What was measured:
[1] = system: primary cultured murine hippocampal neurons; test: functional synaptogenic activity, patch-clamp recordings of excitatory synaptic currents; assay type: cell-based; conditions: treatment concentration 1 ng/mL, days 10-14 after primary culture
Description: The functional synaptogenic activity of the four kinds of novel compounds was examined using primary cultured murine hippocampal neurons according to a method reported by D. Park. et al. (Sci. Rep. 7:7260, 2017). In detail, hippocampal neurons on days 10-14 after primary culture while being exposed to FK506 or each of the four kinds of novel compounds (treatment concentration: 1 ng/mL) was subjected to patch-clamp recordings to measure frequency of excitatory synaptic currents. The frequency of excitatory synaptic currents is used as an index for changes in the number of synapses.

[2] = system: nigrostriatal dopaminergic pathway; test: MPTP-induced Parkinson's disease animal model, TH immunohistochemistry; assay type: in vivo, mouse; conditions: cannula injection into brain for 3 days, 5 mg/mL, MPTP i.p. on day 2, measured day 4, FIG. 28A
HEK293 T Cell = test: MTT assay for cytotoxicity; assay type: cell-based; conditions: 100 nM to 1,000 nM, FIG. 29
Description: (§1) To examine safety of the four kinds of novel compounds, an MTT assay for a cytotoxicity test, an Ames test for rapid evaluation of genotoxicity, and an hERG assay for evaluation of potential effects on cardiac repolarization were carried out. Methods generally used were conducted for the examination.
(§2) In detail, in the MTT assay, 80 to 800 times higher concentrations (100 nM to 1,000 nM) than the […] (1 ng/mL=1.24 nM) were determined as test concentrations of the four kinds of novel compounds. and the drug cytotoxicity was measured in mammalian normal cells (HEK293 T Cell). In the Ames test, the four kinds of novel compounds were treated at a concentration of 4 μg, 16 μg, 64 μg per plate, respectively, and the four kinds of novel compounds were evaluated by examining whether reverse mutation was induced a histidine auxotroph strain (Salmonella typhimurium TA98) and a tryptophan auxotroph strain (Escherichia coli WP2 uvrA). In the hERG assay, 0 μM, 2 μM, 8 μM, and 32 μM of each of the four kinds of novel compounds were treated to two or more numbers of cells. One CHO hERG cell was perfused with a normal tyrode solution. After confirming that the hERG channel current was recorded consistently for 3 to 4 sweeps, an excipient control group and the groups, each treated with one of the four kinds of novel compounds, were perfused for about 1 minute to 2 minutes or longer, and the magnitude of the hERG channel current was allowed to constantly record, and the magnitude of the relative current (pA or nA) and the suppression rate (%) were measured.

[3] = system: Salmonella typhimurium TA98; test: Ames test (reverse mutation), histidine auxotroph strain; conditions: 4 μg, 16 μg, 64 μg per plate
Description: as §1, §2

[4] = system: Escherichia coli WP2 uvrA; test: Ames test (reverse mutation), tryptophan auxotroph strain; conditions: 4 μg, 16 μg, 64 μg per plate
Description: as §1, §2

hERG channel = target: T1, hERG channel (Homo sapiens, UniProt Q12809); test: hERG assay in CHO hERG cells; assay type: cell-based; conditions: 0 μM, 2 μM, 8 μM, and 32 μM
T1 construct: expressed in transfected cells; host or cells: CHO hERG cells
Description: Further, in still another specific embodiment of the present invention, safety was confirmed in a 3-(4,5-dimethylthiazol-2-yl)-2,5-diphenyltetrazolium bromide (MTT) assay (FIG. 29) for cytotoxicity tests of the four kinds of novel compounds, an Ames test for rapid evaluation of genotoxicity, a human eag-related gene (hERG) assay for evaluation of potential effects on cardiac repolarization.
as §1, §2

CD4+ T cells = test: in vitro T-cell activation assay (CTV retention, flow cytometry); assay type: cell-based, mouse
Description: The reduced level of the immunosuppressive activity of the four kinds of novel compounds was examined using a common in vitro T-cell activation assay (J. Immunol. 143:718-726, 1989). […] When CD4+ T cells are stained with Cell Trace™ Violet (CTV), CTV retention of each cell decreases, as cells divide and T cells proliferate according to the immune response, and thus immunosuppressive activity was examined using the CTV retention as an index.
Single cells were isolated from the spleen of 6- to 8-week-old B6J laboratory mouse, and CD4+ T cells were isolated using MagniSort® Mouse CD4 T cell Enrichment Kit (eBioscience). CD4+ T cells were stained with Cell Trace™ Violet (CTV) Cell Proliferation Kit (Molecular Probes) and FK506 or each of the four kinds of novel compounds was added at a concentration of 0.01 ng/mL, 0.1 ng/mL, 1 ng/mL, 10 ng/mL, 100 ng/mL, 1000 ng/mL, followed by incubation for 72 hours. For activation of T cells. Dynabeads® Mouse T-Activator CD3/CD28 (Gibco) was used. As a control group, non-activated T cells were used. After incubation, CTV intensity was analyzed by flow cytometry.

[5] = system: primary cultured murine hippocampal neurons; test: neurite outgrowth in primary cultured hippocampal neurons; assay type: cell-based; conditions: treatment concentration 1 ng/mL, neurite lengths, FIG. 26
Description: The neuronal growth-promoting ability of the four kinds of novel compounds was examined using primary cultured murine hippocampal neurons according to a method reported by Jing Sun et al. (J. Neuroinflam. 15:180, 2018). […] The neurite lengths were measured on photographic prints according to a previously reported method (J. Pharmacol. Exp. Ther. 302:1278-1285, 2002).

T1 sequence (Q12809 whole entry): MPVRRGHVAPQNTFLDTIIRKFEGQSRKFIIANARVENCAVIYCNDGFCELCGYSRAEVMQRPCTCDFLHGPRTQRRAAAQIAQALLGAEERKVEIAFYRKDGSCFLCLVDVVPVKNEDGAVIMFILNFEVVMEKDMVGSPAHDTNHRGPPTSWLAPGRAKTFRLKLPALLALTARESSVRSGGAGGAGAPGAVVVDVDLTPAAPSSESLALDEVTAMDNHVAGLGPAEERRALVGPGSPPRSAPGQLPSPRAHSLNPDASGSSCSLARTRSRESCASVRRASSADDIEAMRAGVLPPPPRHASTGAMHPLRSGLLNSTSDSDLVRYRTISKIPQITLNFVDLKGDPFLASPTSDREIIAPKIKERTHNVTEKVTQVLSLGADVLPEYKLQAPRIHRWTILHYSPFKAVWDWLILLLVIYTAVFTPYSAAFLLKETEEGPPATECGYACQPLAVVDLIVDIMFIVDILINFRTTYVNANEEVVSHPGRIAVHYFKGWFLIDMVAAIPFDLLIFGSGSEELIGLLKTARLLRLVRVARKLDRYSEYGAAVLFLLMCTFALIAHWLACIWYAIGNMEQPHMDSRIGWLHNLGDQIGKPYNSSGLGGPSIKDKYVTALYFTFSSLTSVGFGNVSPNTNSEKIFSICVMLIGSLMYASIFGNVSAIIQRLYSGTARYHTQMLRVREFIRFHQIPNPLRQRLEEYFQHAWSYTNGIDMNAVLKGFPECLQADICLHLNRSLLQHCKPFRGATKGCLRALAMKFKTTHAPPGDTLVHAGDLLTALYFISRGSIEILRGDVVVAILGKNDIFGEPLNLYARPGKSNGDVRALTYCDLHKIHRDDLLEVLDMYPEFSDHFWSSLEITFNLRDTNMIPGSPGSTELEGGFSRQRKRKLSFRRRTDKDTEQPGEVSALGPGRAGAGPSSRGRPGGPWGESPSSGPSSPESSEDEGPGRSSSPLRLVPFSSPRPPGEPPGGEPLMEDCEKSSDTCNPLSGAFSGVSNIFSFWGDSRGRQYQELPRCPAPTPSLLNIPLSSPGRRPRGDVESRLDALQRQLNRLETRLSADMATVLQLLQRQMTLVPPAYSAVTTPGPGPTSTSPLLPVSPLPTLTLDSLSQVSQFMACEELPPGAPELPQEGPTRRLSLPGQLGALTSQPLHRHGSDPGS

Compound	spontaneous excitatory synaptic currents (sEPSCs), frequency [1]	recovery in the density of neuron fibers [2]	cytotoxicity (MTT) (HEK293 T Cell)	reverse mutation induction (Ames test) [3]	reverse mutation induction (Ames test) [4]	risk of cardiac repolarization (hERG channel current) (hERG channel)	immunosuppressive activity as compared with FK506 (CD4+ T cells; T cell proliferation, CTV intensity, Table 7 and FIG. 25)	IC50 (CD4+ T cells; activated mouse CD4+ T cells (CD3/CD28), 72 hours incubation, CTV intensity by flow cytometry, read-out: Immunosuppression IC50)	Immunosuppression IC50 (CD4+ T cells; activated mouse CD4+ T cells (CD3/CD28), 72 hours incubation, CTV intensity by flow cytometry)	neurite outgrowth effect [5]
C=CC[C@@H]1/C=C(\C)C[C@H](C)C[C@H](OC)[C@H]2O[C@@](O)(C(=O)C(=O)N3CCCC[C@H]3C(=O)O[C@H](/C(C)=C/[C@@H]3CC[C@@H](O)[C@H](OC)C3)[C@H](C)[C@@H](O)CC1=O)[C@H](C)C[C@@H]2OC [FK506]	2.61±0.18	–	–	–	–	–	–	–	–	–
CCC[C@@H]1/C=C(\C)C[C@H](C)C[C@H](OC)[C@H]2O[C@@](O)(CC(=O)N3CCC[C@H]3C(=O)O[C@H](/C(C)=C/[C@@H]3CC[C@@H](O)[C@H](OC)C3)[C@H](C)[C@@H](O)CC1=O)[C@H](C)C[C@@H]2OC [9-deoxo-36,37-dihydro-prolyl FK506]	3.29±0.22	superior recovery in the density of neuron fibers, as compared to those treated with FK506	no cytotoxicity was observed	without inducing reverse mutations	without inducing reverse mutations	without risk of cardiac repolarization	–	–	–	–
CCC[C@@H]1/C=C(\C)C[C@H](C)C[C@H](OC)[C@H]2O[C@@](O)(CC(=O)N3CCC[C@H]3C(=O)O[C@H](/C(C)=C/[C@@H]3CC[C@@H](O)[C@H](O)C3)[C@H](C)[C@@H](O)CC1=O)[C@H](C)C[C@@H]2OC [9-deoxo-31-O-demethyl-36,37-dihydro-prolyl FK506]	2.63±0.27	superior recovery in the density of neuron fibers, as compared to those treated with FK506	no cytotoxicity was observed	without inducing reverse mutations	without inducing reverse mutations	without risk of cardiac repolarization	–	–	–	–
CC[C@@H]1/C=C(\C)C[C@H](C)C[C@H](OC)[C@H]2O[C@@](O)(CC(=O)N3CCC[C@H]3C(=O)O[C@H](/C(C)=C/[C@@H]3CC[C@@H](O)[C@H](O)C3)[C@H](C)[C@@H](O)CC1=O)[C@H](C)C[C@@H]2OC [9-deoxo-31-O-demethyl-prolyl FK520]	–	superior recovery in the density of neuron fibers, as compared to those treated with FK506	no cytotoxicity was observed	without inducing reverse mutations	without inducing reverse mutations	without risk of cardiac repolarization	lowest immunosuppressive activity	7.09 µg/mL (≈ 9.45 µM)	–	–
9-deoxo-prolyl FK520	–	superior recovery in the density of neuron fibers, as compared to those treated with FK506	–	without inducing reverse mutations	without inducing reverse mutations	without risk of cardiac repolarization	–	–	3.2888 µg/mL	superior neurite outgrowth effect, as compared with FK506
